Reference: patent US8541189B2, “Method for measuring the plasmine activity of microparticles present in a sample of blood or a blood component” (Institut National de la Sante et de la Recherche Medicale …, priority 2007, dated 2013)

Target: plasminogen (Homo sapiens, UniProt P00747)
Experiment: Plasmin-generation test, EMPs in suspension
Assay type: biochemical
Conditions: 5 · 10^4 EMP/50 μL + EACA; 1 μM plasminogen; 0.75 mM CBS0065
Experimental: In the round-bottomed wells of 96-well plates made of PVC, different EMP concentrations in suspension in PBS, to which 0.8% bovine serum albumin (PBSA) had been added, were incubated with 50 μl of a mixture of 1 μM plasminogen and (methyl-malonyl)-hydroxypropylarginine-p-nitroanilide (CBS0065, Stag°, Asniéres, France), chromogenic substrate selective for plasmin, at 0.75 mM.
An identical volume of supernatant from the last washing of the EMPs was used as a control.
The microplate was placed in the microplate readers and the kinetics of the appearance of the plasmin were monitored for 9 hours using a spectrophotometer suitable for reading multiwell plates (MX5000. Dynex) at 37° C. by measurement of the modifications of the absorbance at 405 nm produced by the release of the p-nitroaniline as a function of time.

plasminogen, sequence (P00747 20-810 limits assumed, species assumed): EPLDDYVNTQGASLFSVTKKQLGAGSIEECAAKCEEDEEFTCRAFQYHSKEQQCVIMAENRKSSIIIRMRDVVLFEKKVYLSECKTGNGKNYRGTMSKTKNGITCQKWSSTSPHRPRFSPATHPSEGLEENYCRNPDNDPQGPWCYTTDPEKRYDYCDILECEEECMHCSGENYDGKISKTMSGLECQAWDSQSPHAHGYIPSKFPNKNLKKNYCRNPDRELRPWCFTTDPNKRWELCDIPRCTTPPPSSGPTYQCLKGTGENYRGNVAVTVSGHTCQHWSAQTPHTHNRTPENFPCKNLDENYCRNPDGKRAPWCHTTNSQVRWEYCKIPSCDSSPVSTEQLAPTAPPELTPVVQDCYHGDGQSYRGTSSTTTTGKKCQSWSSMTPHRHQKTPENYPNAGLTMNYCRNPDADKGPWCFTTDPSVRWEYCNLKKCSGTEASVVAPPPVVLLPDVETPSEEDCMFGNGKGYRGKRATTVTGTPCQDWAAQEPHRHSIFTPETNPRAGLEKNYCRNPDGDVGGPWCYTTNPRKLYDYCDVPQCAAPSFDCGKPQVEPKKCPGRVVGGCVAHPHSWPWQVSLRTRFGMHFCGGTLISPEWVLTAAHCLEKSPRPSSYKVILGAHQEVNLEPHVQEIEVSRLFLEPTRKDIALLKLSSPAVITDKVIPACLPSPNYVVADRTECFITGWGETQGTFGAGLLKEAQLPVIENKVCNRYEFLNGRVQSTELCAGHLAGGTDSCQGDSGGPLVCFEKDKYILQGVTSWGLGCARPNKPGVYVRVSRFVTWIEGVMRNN

- A405 nm/min: 0.6 A405 nm/min
SMILES: NCCCCCC(=O)O [EACA, ε-aminocaproic acid]
